# Experimental data from PubChem BioAssay AID1996.
# Conditions: buffer; pH 7.4; 200.0 µM
row,Compound,solubility kinetic
1,COc1ccc(CCNC(=O)C2CC(O)CN2S(=O)(=O)c2ccc(Cl)cc2)cc1OC (stereo not drawn),> 70.3 µg/mL
2,COc1ccc(CCC(=O)Nc2ccc(Cn3ccnc3)cc2)cc1,44.2 µg/mL
3,O=C(COC(=O)c1cnccn1)NCc1ccc(Cl)cc1,> 45.9 µg/mL
4,Cc1cc(C)cc(OC(C)C(=O)NCCCn2ccnc2)c1 (stereo not drawn),33.4 µg/mL
5,O=C(Nc1ccc(Nc2ccccc2)cc1)c1ccc(F)cc1,0.7 µg/mL
6,Cn1c(O)c(C=NCCN2CCNCC2)c(=O)[nH]c1=O,> 42.2 µg/mL
7,Cc1c(Cl)cccc1NC(=O)NCc1ccc(C)n1C,5.3 µg/mL
8,O=C(O)C1C2C=CC(C2)C1C(=O)Nc1ccc(Cl)c(Cl)c1 (stereo not drawn),13.4 µg/mL
9,CCn1c(=O)c(C(=O)NCc2ccccc2)c(O)c2ccccc21,< 0.3 µg/mL
10,COc1ccc(C(=O)NCc2ccc3c(c2)cc(C)n3C)cc1OC,4.7 µg/mL
11,COc1ccc(C)cc1NC(=O)CC(NC(C)=O)c1ccccc1 (stereo not drawn),> 49 µg/mL
12,CCOc1cc(N2CCOCC2)c(OCC)cc1NC(=O)CSc1ncccc1C(=O)O,> 69.2 µg/mL
13,CCOP(=O)(OCC)C(NC(=O)NC)C(N)=O (stereo not drawn),30.4 µg/mL
14,CN(C)c1cccc2c(S(=O)(=O)N3CCCC3)cccc12,34 µg/mL
15,Cc1cc(F)ccc1NCc1ccc([N+](=O)[O-])cc1,0.3 µg/mL
16,COC(=O)Cn1cc(C(=O)C(C)(C)C)c2ccccc21,37.1 µg/mL
17,Cc1ccc(SCC(=O)c2ccc[nH]2)cc1,24.6 µg/mL
18,CCOC(=O)CNC(=O)CSc1nc(-c2ccccc2)ns1,> 50.6 µg/mL
19,Cc1cc(C(=O)N2CCCC(Nc3ccc(F)cc3)C2)c(C)o1 (stereo not drawn),> 47.5 µg/mL
20,CC(CC(=O)Nc1cccnc1)c1ccccc1 (stereo not drawn),> 36 µg/mL

row,Compound,solubility kinetic
1,COc1ccccc1C(=O)NC(C)c1ccc(-n2ccnc2)cc1 (stereo not drawn),> 48.2 µg/mL
2,CC1CCCN(c2nc(N(C)c3ccccc3)nc(N)c2[N+](=O)[O-])C1 (stereo not drawn),4.5 µg/mL
3,CCOc1ncccc1C(=O)OCC(=O)c1ccc(OC)c(OC)c1,> 51.8 µg/mL
4,O=c1cc(-c2ccccc2)nc(SCCOc2ccccc2Cl)[nH]1,0.4 µg/mL
5,Cc1ccc2nc(NCc3ccccc3)c(C#N)cc2c1,2.8 µg/mL
6,CCc1ccc(NC(=S)Nc2cccc3cnccc23)cc1,11.6 µg/mL
7,CCOC(=O)C1CCN(C/C=C/c2ccccc2[N+](=O)[O-])CC1,39.3 µg/mL
8,Cc1cccc(N2CN(S(=O)(=O)c3cccc([N+](=O)[O-])c3)c3nc4ccccc4nc32)c1,0.7 µg/mL
9,COc1ccc(C(=O)O/N=C(\C)c2cnccn2)cc1,9 µg/mL
10,COc1ccccc1NC(=O)COC(=O)c1ccc([N+](=O)[O-])s1,5.1 µg/mL
11,Cc1ccc2oc(Nc3nc(C)c(C)c(C)n3)nc2c1,2.4 µg/mL
12,CSc1nc(NS(=O)(=O)c2ccc(F)cc2F)nn1C,> 48 µg/mL
13,O=C1CC2(CCN(C(=O)COc3ccc(F)cc3)CC2)Oc2ccccc21,> 55.4 µg/mL
14,Cc1cc(S(=O)(=O)c2ccc([N+](=O)[O-])cn2)ccc1Br,1.7 µg/mL
15,CCN(CC)CCSc1nc2ccc(OC)cc2[nH]1.Cl,> 52.8 µg/mL
16,CCCCn1c(NC(=O)c2ccco2)c(S(=O)(=O)c2ccc(C)cc2)c2nc3ccccc3nc21,20.2 µg/mL
17,Nc1c(C(=O)Nc2ccccc2)c2nc3ccccc3nc2n1-c1ccc(O)cc1,0.7 µg/mL
18,O=C(CCN1C(=O)c2cccc([N+](=O)[O-])c2C1=O)Nc1nccs1,49.3 µg/mL
19,N#C/C(N)=C(/C#N)N=Cc1cccc(Cl)c1,4 µg/mL
20,CNCc1ccccc1OCc1ccccc1F.Cl,> 42.3 µg/mL

row,Compound,solubility kinetic
1,CCOc1ccc(C(=O)Nc2ccc3c(c2)OCCO3)cc1,< 0.6 µg/mL
2,Cn1c(C2=C(O)CN(Cc3ccccc3)C2=N)[n+](C)c2ccccc21.[Cl-],48.2 µg/mL
3,O=c1[nH]c2cc(S(=O)(=O)CCO)ccc2o1,32.4 µg/mL
4,Cc1ccc(C(CC(=O)N2CCCC2)c2ccccc2)c(O)c1 (stereo not drawn),> 46.4 µg/mL
5,O=C(O)CCC(=O)Nc1ccc(Oc2ncnc3cc(Cl)ccc23)nc1,> 55.9 µg/mL
6,NC(=O)C1CCN(C(=O)c2cc3ccccc3cc2O)CC1,> 44.8 µg/mL
7,COc1ccc(C(=O)N[C@H](C(=O)NCCc2ccc3c(c2)OCCO3)C(C)C)cc1,19.7 µg/mL
8,O=S(=O)(NCc1ccco1)c1cnc(Cl)c(Cl)c1,> 46.1 µg/mL
9,N/C(=N/OC(=O)c1ccc(Cl)cc1)c1ncc([N+](=O)[O-])s1,0.2 µg/mL
10,CCOC(=O)N1CCN(CC(=O)c2ccc(O)c(C)c2O)CC1,40.7 µg/mL
11,O=C1CCN(Cc2nc(-c3ccc(Cl)cc3)no2)CCN1,> 46 µg/mL
12,Clc1ccc2nc(-c3ccc(Cl)nc3)[nH]c2c1,13.5 µg/mL
13,COC(=O)c1scc(C)c1N1C(=O)c2ccccc2C1=O,4.2 µg/mL
14,COC(=O)c1[nH]c2ccccc2c1NC(=O)c1ccccc1F,2.1 µg/mL
15,CCn1c(C)nc2cc(C(=O)NN=Cc3ccccc3OC(F)F)ccc21,> 55.9 µg/mL
16,Cc1ccc(NC(=O)C2COc3ccccc3O2)cc1C (stereo not drawn),14.5 µg/mL
17,Cc1cccc(C)c1OCC(=O)N1CCc2ccccc2C1,34.5 µg/mL
18,O=C(Cc1ccccc1)NC1CCSc2ccccc21 (stereo not drawn),11.7 µg/mL
